In one data set the test system is male golden hamsters. As to the kind of experiment: Resident/intruder paradigm of offensive aggression. The data set is classed as in vivo, Syrian golden hamsters (Mesocricetus auratus). As to the method: Male Syrian golden hamsters (Mesocricetus auratus) (140-150 g) obtained from Harlan Sprague-Dawley Laboratories (Indianapolis, Ind.) were housed individually in Plexiglas cages (24 cm×24 cm×20 cm), maintained on a reverse light:dark cycle (14L:10D; lights on at 19:00 hr) and provided food and water ad libitum. Animals were acclimated to the reverse light:dark cycle for at least two weeks before testing. All behavioral tests were conducted during the dark phase of the circadian cycle. All animals were acquired and cared for in accordance with the guidelines published in the Guide for the Care and Use of Laboratory Animals (National Institutes of Health Publications No. 85-23, Revised 1985).
(§1) Agonistic behavior can be classified as either offensive or defensive aggression (Blanchard and Blanchard, 1977; Adams, […]; Albert and Walsh, 1984). Offensive aggression is characterized by the aggressor initiating an attack on an opponent, while defensive aggression lacks active approach. Both types of aggression have their own unique neurobehavioral systems. The stimuli that elicit offensive and defense attack are different, as are the sequences of behaviors that accompany each agonistic response. […] Offensive aggression is easily studied using male golden hamsters tested in a resident/intruder paradigm, an established model of offensive aggression (Ferris and Potegal 1988). Placing an unfamiliar male hamster into the home cage of another male hamster elicits a well-defined sequence of agonistic behaviors from the resident that includes offensive aggression.
Hamsters are nocturnal and as such all behavioral tests were performed during the first four hrs of the dark phase under dim red illumination. The resident was scored for offensive aggression, e.g., latency to bite the intruder, the total number of bites, total contact time with the intruder and flank marking over a 10 min test period (Ferris and Potegal, 1988). Flank marking is a form of olfactory communication in which a hamsters arches its back and rubs pheromone producing flank glands against objects in the environment (Johnson, 1986).
Parametric data, i.e., latencies and contact time, were analyzed with a one-way ANOVA followed by Newman-Keuls post hoc tests. Non parametric data, i.e., number of bites and flank marks, were analyzed with Kruskal-Wallis tests followed by Mann-Whitney U tests to determine differences between groups. Two sample comparisons were analyzed with paired and unpaired t-Tests for parametric data and Wilcoxon and Mann-Whitney Tests for paired and unpaired non-parametric data, respectively.
as §1, with “by an” for “by the”, “an opponent; while,” for “an opponent, while”, “Potegal 1988) in the context of defending the home burrow.” for “Potegal 1988).”
Hamsters are nocturnal and as such all behavioral tests were performed during the first four hrs of the dark phase under dim red illumination. The resident was scored for offensive aggression, e.g., latency to bite the intruder, the total number of bites, total contact time with the intruder and flank marking over a 10 min test period (Ferris and Potegal, 1988). […]

The next data set concerns rats. As to the kind of experiment: Motor activity in an open field (plus-maze animals). The data set is classed as in vivo, rat. As for the experimental part: However, this depression of motor activity disappears following repeated administration of CDP over several days. […] To control for any non-specific effects of Mox and CDP on motor activity following their direct injection into the brain, animals were tested in the open field 30 min prior to testing in the plus (FIG. 18).
Immediately after each of the plus-maze tests reported above in Section II, animals were tested for general motor activity in an “open field.” Animals were placed into a large clean Plexiglas cage (48×32×40 cm) devoid of bedding. This open field was delineated into equal quadrants by tape on the underside of the cage. Animals were scored for motor activity by counting the number of quadrants traversed in 1 min.

Data set [1] has as its system hamsters and other test species. Briefly: Animal tests: effective dose for neuroactivity. In kind it is in vivo. To be noted: for threshold effective dose (administered parenterally): parenteral. As for the experimental part:
Animal tests indicate a threshold effective dose of moxalactam (administered parenterally) to be about 50 μg/kg of body weight. Based on animal test data and on the known distribution of parenterally administered moxalactam between the brain and other body tissues, that the effective minimum neurogenic protease inhibiting, concentration of moxalactam in the brain is about 30 nM. […] For parenterally administered moxalactam the minimum effective dose in hamsters and other test species is about 50 micrograms per kg of body weight, more or less. The use of moxalactam in an oral dosage form, preferably modified or derivatized in the form of an active ester, is estimated to range from about 2.5 to about 50 mg per dose, much less than the dose of moxalactam necessary to provide therapeutically effective antibiotic concentration. The effective oral dose of clavulanate is expected to be about 0.1 to about 10 mgs per dose.

Setting [2] is: 50 μg/kg IP, 90 min, thirteen hamsters.

SMILES strings stand for the structures. Some results are limits rather than exact numbers.

Regarding `O=C(O)[C@H]1/C(=C/CO)O[C@@H]2CC(=O)N21` [CLAV, Clavulanic acid], in the data set on male golden hamsters (CLAV 200 μg/kg IP, 90 min), the “contact time with the intruder” value is “no significant main effect” and the flank marking entry was “no significant effect”. In addition, the “latency to bite the intruder” value with male golden hamsters (CLAV 200 μg/kg IP, 90 min, trend toward significance) is “no significant main effect”. Besides, the “median number of bites” value in the data set on male golden hamsters (CLAV 200 μg/kg IP, 90 min, thirteen for vehicle) is given as “six”. In addition, the aggressive behavior entry with male golden hamsters (pilot studies, 1.0 μg/kg IP) was “no effect”. The “open field activity (quadrants traversed in 1 min)” value in the data set with rats (CLAV 1.0 μg/kg IP, immediately after plus-maze) was “no significant differences”. For the same compound, in data set [1] (i.p.), the effective i.p. dose result was “less than 1 microgram/kg” and the “i.p. doses with psychotropic effects (antianxiety, antiaggression, cognition enhancement)” value is “less than 1 μg/kg”.

`CO[C@@]1(NC(=O)C(C(=O)O)c2ccc(O)cc2)C(=O)N2C(C(=O)O)=C(CSc3nnnn3C)CO[C@@H]21` (stereo partly drawn) [Mox, 7-β-[2-carboxy-2-(4-hydroxyphenyl)acetamido]-7α-methoxy-3-[[(1-methyl-1H-tetrazol-5-yl)thio]methyl]-1-oxa-1-dethia-3-cephem-4-carboxylic acid]: the bite latency result in the data set with male golden hamsters (setting [2]) is “significantly increased”; with male golden hamsters (dose response, 500 μg and 5.0 mg) it was “significantly increased”. Further, the contact time result with male golden hamsters (setting [2]) is reported as “no significant change”; with male golden hamsters (50 mg/kg IP, 90 min) it was “significantly reduced”; with male golden hamsters (dose response, 500 μg and 5 mg) it was “significantly reduced”; in the data set with male golden hamsters (equimolar (90 μM) IP, 90 min), “no significant treatment effect”. Further, the flank marking entry in the data set with male golden hamsters (setting [2]) is reported as “no significant change”; with male golden hamsters (50 mg/kg IP, 90 min) it was “did not reach significance”; in the data set with male golden hamsters (dose response, 0.5-5000 μg/kg, between groups) it was “not significantly different”; with male golden hamsters (equimolar (90 μM) IP, 90 min), “no significant treatment effect”. Further, the number of bites entry was “reduced” in the data set on male golden hamsters (setting [2]); “significantly reduced” with male golden hamsters (50 mg/kg IP, 90 min, 10 min observation); “significant reduction” in the data set with male golden hamsters (dose response, 50 μg); “significantly reduced” in the data set with male golden hamsters (equimolar (90 μM) IP, 90 min). Moreover, in the data set with male golden hamsters (50 mg/kg IP, 90 min after treatment, 10 min observation, vs saline), the “mean latency to bite” value is recorded as “over six”. In addition, the “animals that never bite in the 10 min observation period” value in the data set on male golden hamsters (dose response, 50 μg) is “three of six”. Besides, the “delay of bite latency vs vehicle” value in the data set on male golden hamsters (dose response, 50 μg/kg) is listed as “over seven”. Further, in the data set on male golden hamsters (dose response, doses of 5.0 μg and less), the “behavioral measures of offensive aggression” value was “no effect”. Moreover, the latency to bite entry in the data set on male golden hamsters (equimolar (90 μM, equal to 50 μg/kg Mox) IP, 90 min) is listed as “significantly delayed”. For the same compound, the “general motor activity in the open field” value in the data set on rats (1 mM direct injection into the brain, 30 min prior to plus-maze) is listed as “no significant effect”. Further, the “threshold effective dose (administered parenterally)” value in data set [1] (listed as Moxalactam) is ≥ 50 μg/kg of body weight; in data set [1] (listed as moxalactam), “about 50 μg/kg of body weight”.

Values taken from patent US7842683B2, “Neurotherapeutic compositions and method” (Revaax Pharmaceuticals, LLC, priority 1999, dated 2010).
